Values quoted from earlier work in patent US20250186613A1 (The Trustees of the University of Pennsylvania, priority 2022, published 2025).
Where two headings read alike, the source gives them in different places.

Columns and labels:
[1] = cited from earlier work
GLP-2 receptor = target: T1, GLP-2 receptor (Homo sapiens, UniProt O95838); details: relative to GLP2; cited from earlier work
T1 sequence (O95838 1-553): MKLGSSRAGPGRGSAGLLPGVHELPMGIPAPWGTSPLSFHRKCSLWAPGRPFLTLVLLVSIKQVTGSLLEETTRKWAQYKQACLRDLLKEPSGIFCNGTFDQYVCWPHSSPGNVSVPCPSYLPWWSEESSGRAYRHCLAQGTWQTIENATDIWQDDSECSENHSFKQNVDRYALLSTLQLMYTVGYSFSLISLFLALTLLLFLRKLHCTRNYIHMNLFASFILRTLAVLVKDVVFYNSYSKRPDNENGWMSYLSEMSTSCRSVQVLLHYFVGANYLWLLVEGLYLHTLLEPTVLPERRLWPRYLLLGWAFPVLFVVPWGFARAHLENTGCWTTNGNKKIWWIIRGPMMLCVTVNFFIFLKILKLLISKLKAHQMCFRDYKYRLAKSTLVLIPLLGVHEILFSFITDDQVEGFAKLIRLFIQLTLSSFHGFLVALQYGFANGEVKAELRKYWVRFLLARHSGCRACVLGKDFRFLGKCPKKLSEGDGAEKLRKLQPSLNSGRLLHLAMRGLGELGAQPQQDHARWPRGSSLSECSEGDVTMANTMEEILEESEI

[2] = daily 0.05 mg/kg subcutaneous, cited from earlier work

Apraglutide
T½ ([1]; in vivo): 30 h
EC50 (/GLP2) (GLP-2 receptor): 0.5 /GLP2

Glepaglutide
T½ ([1]; in vivo): 50 h
EC50 (/GLP2) (GLP-2 receptor): 4 /GLP2

CC[C@H](C)[C@H](NC(=O)[C@H](Cc1ccccc1)NC(=O)[C@H](CC(=O)O)NC(=O)[C@H](CCCN=C(N)N)NC(=O)[C@H](C)NC(=O)[C@H](C)NC(=O)[C@H](CC(C)C)NC(=O)[C@H](CC(N)=O)NC(=O)[C@H](CC(=O)O)NC(=O)[C@H](CC(C)C)NC(=O)[C@@H](NC(=O)[C@@H](NC(=O)[C@H](CC(N)=O)NC(=O)[C@H](CCSC)NC(=O)[C@H](CCC(=O)O)NC(=O)[C@H](CC(=O)O)NC(=O)[C@H](CO)NC(=O)[C@H](Cc1ccccc1)NC(=O)[C@H](CO)NC(=O)CNC(=O)[C@H](CC(=O)O)NC(=O)[C@H](C)NC(=O)[C@@H](N)Cc1cnc[nH]1)[C@@H](C)O)[C@@H](C)CC)C(=O)N[C@@H](CC(N)=O)C(=O)N[C@@H](Cc1c[nH]c2ccccc12)C(=O)N[C@@H](CC(C)C)C(=O)N[C@H](C(=O)N[C@@H](CCC(N)=O)C(=O)N[C@H](C(=O)N[C@@H](CCCCN)C(=O)N[C@H](C(=O)N[C@H](C(=O)N[C@@H](CC(=O)O)C(=O)O)[C@@H](C)O)[C@@H](C)CC)[C@@H](C)O)[C@@H](C)CC [GLP-2]
serum half-life ([1]; native peptide, cleaved by DPP IV): 0.083 h

CC[C@H](C)[C@H](NC(=O)[C@H](Cc1ccccc1)NC(=O)[C@H](CC(=O)O)NC(=O)[C@H](CCCNC(=N)N)NC(=O)[C@H](C)NC(=O)[C@H](C)NC(=O)[C@H](CC(C)C)NC(=O)[C@H](CC(N)=O)NC(=O)[C@H](CC(=O)O)NC(=O)[C@H](CC(C)C)NC(=O)[C@@H](NC(=O)[C@@H](NC(=O)[C@H](CC(N)=O)NC(=O)[C@H](CCSC)NC(=O)[C@H](CCC(=O)O)NC(=O)[C@H](CC(=O)O)NC(=O)[C@H](CO)NC(=O)[C@H](Cc1ccccc1)NC(=O)[C@H](CO)NC(=O)CNC(=O)[C@H](CC(=O)O)NC(=O)CNC(=O)[C@@H](N)Cc1c[nH]cn1)[C@@H](C)O)[C@@H](C)CC)C(=O)N[C@@H](CC(N)=O)C(=O)N[C@@H](Cc1c[nH]c2ccccc12)C(=O)N[C@@H](CC(C)C)C(=O)N[C@H](C(=O)N[C@@H](CCC(N)=O)C(=O)N[C@H](C(=O)N[C@@H](CCCCN)C(=O)N[C@H](C(=O)N[C@H](C(=O)N[C@@H](CC(=O)O)C(=O)O)[C@@H](C)O)[C@@H](C)CC)[C@@H](C)O)[C@@H](C)CC [Teduglutide]
serum half-life ([1]; A2G mutation for DPP IV resistance): 1.5 h
T½ (h) ([1]; in vivo): 1.5 (0.1) h
patients who achieved >20% reduction of PN volume per week from the baseline ([2]; 2 years of treatment): 90%
patients who obtained >1 additional days PN off per week from the baseline ([2]; 2 years of treatment): 70%
PN volume ([2]; throughout 2 years of treatment): sustained and continuous reduction of PN volume
